# Measurements as given in US8759400B2, “Histone deacetylase inhibitors for enhancing activity of antifungal agents” (MethylGene Inc., priority 2005, dated 2014).
# Where two headings read alike, the source gives them in different places.
# What was measured:
# HDAC [1] = assay: HDAC inhibitory activity in fungal protoplasts (Fluor-de-Lys); format: cell-based, Candida glabrata; settings: C. glabrata protoplasts; for HDAC inhibition, per cent in parentheses beside IC50 >20: concentration not given
# Experimental: (§1) Protoplasts of C. albicans and C. glabrata are prepared by the […] method of Franzusoff et al.
# C. albicans (ATCC 90028) = assay: MIC80 and checkerboard synergy with antifungal agents; format: cell-based, Candida albicans
# HDAC [2] = assay: HDAC inhibitory activity in fungal protoplasts (Fluor-de-Lys); format: cell-based, Candida albicans; settings: C. albicans protoplasts; for HDAC inhibition, per cent in parentheses beside IC50 >20: concentration not given
# Experimental: as §1
# A. fumigatus ATCC 1022 = assay: MIC80 and checkerboard synergy, broth microdilution (NCCLS M38-A); format: cell-based, Aspergillus fumigatus; settings: for conc. for 4-fold synergy: 48 hours
# C. glabrata (ATCC 90030) [3] = assay: MIC80 and checkerboard synergy with antifungal agents; format: cell-based, Candida glabrata; settings: C. glabrata (ATCC 90030); for MIC / MIC80: compound alone
# HMEC [4] = assay: Mammalian cytotoxicity, MTT reduction
# ERG11 expression = ERG11 expression with fluconazole (FIG. 3); format: cell-based; settings: compound 6 and fluconazole, C. albicans
# HMEC [5] = settings: human
# HDAC [6] = assay: HDAC inhibitory activity in fungal protoplasts (Boc-Lys(Ac)-AMC); format: cell-based, Aspergillus fumigatus; settings: A. fumigatus protoplasts
# C. glabrata (ATCC 90030) [7] = format: cell-based; settings: agar plates containing 4×MIC of the relevant azole alone
# C. dubliniensis = assay: Clinical isolates, CLSI M27-A2 broth microdilution and checkerboard; format: cell-based; settings: Candida dubliniensis
# [8] = system: C. glabrata parent strain (ATCC 90030) and C. glabrata mutants; assay: microbe, parasite or virus in culture; format: cell-based; settings: for MIC80: azole alone
# C. glabrata = assay: Post-antifungal effect (PAFE); format: cell-based; settings: itraconazole alone at 0.25 MIC
# Experimental: The post-antifungal effect (PAFE) is the time needed to achieve one log10 of cell growth after drug removal. One-two colonies are resuspended in 5 ml YPD. […] Cells are incubated at 30° C. overnight. In the morning, the optical density at 600 nm is read. Cells at A600 the closest but not surpassing 0.3 (early log-phase cells) are picked for further treatments as follows: […] Counts of CFU/ml are performed at time zero, before and after diluting the cells and at predetermined time points in order to determine the PAFE and the cidal potential of each drug combination (FIGS. 5-10).
# A. flavus = assay: Clinical isolates, CLSI M38-A broth microdilution and checkerboard; format: cell-based; settings: itraconazole alone, 48 hour endpoint, listed as ITR
# [9] = Candida albicans, ATCC90028, compound alone, C. albicans (ATCC 90028), read-out: MIC80
# [10] = with ketoconazole, A. fumigatus ATCC 1022
# [11] = Nakaseomyces glabratus, ATCC90030, read-out: MIC80
# [12] = Aspergillus fumigatus, ATCC1022, compound alone, A. fumigatus ATCC 1022, read-out: MIC80
compound,measurement,setting,value
O=C(NO)c1cccc(CCCc2ccccc2)c1 [Cpd 1],HDAC inhibition IC50,HDAC [1],> 20 µg/mL
same,"HDAC inhibition, per cent in parentheses beside IC50 >20",HDAC [1],38%
same,MIC,C. albicans (ATCC 90028); [9],> 16 µg/mL
same,HDAC inhibition IC50,HDAC [2],9.1 µg/mL
O=C(Cc1ccc(CCCc2ccccc2)cc1)NO [Cpd 5],HDAC inhibition IC50,HDAC [1],> 20 µg/mL
same,"HDAC inhibition, per cent in parentheses beside IC50 >20",HDAC [1],37%
same,conc. for 4-fold synergy,A. fumigatus ATCC 1022; [10],4 µg/mL
same,MIC,C. albicans (ATCC 90028); [9],> 8 µg/mL
same,MIC,C. glabrata (ATCC 90030) [3]; [11],> 50 µg/mL
same,HDAC inhibition IC50,HDAC [2],> 20 µg/mL
same,"HDAC inhibition, per cent in parentheses beside IC50 >20",HDAC [2],42%
same,MTT HMEC,HMEC [4],47 µM
O=C(CCc1ccc(CCCc2ccccc2)cc1)NO [Cpd 6],HDAC inhibition IC50,HDAC [1],> 20 µg/mL
same,"HDAC inhibition, per cent in parentheses beside IC50 >20",HDAC [1],22%
same,MIC,C. albicans (ATCC 90028); [9],25 µg/mL
same,MIC,C. glabrata (ATCC 90030) [3]; [11],25 µg/mL
same,ERG11 expression,ERG11 expression,decreases
same,HDAC inhibition IC50,HDAC [2],>20 µg/mL
same,MTT HMEC,HMEC [4],40 µM
O=C(CCc1ccc(CCc2ccccc2)cc1)NO [Cpd 7],HDAC inhibition IC50,HDAC [1],> 20 µg/mL
same,"HDAC inhibition, per cent in parentheses beside IC50 >20",HDAC [1],27%
same,MIC,C. albicans (ATCC 90028); [9],> 8 µg/mL
same,MIC,C. glabrata (ATCC 90030) [3]; [11],16 µg/mL
same,HDAC inhibition IC50,HDAC [2],> 20 µg/mL
same,"HDAC inhibition, per cent in parentheses beside IC50 >20",HDAC [2],15%
same,MTT HMEC,HMEC [4],10 µM
COc1ccc(C(OC)C(C)(C)CCCCC(=O)NO)cc1 (stereo not drawn) [Cpd 11],HDAC inhibition IC50,HDAC [1],50 µg/mL
same,MTT HMEC,HMEC [4],50 µM
"O=C(/C=C/c1ccc(CN(CCO)CCc2c[nH]c3ccccc23)cc1)NO [LAQ-824, reference compound]",HDAC inhibition IC50,HDAC [1],0.01 µg/mL
same,MIC,"A. fumigatus ATCC 1022; Aspergillus fumigatus, ATCC1022, 48 h, compound alone, A. fumigatus ATCC 1022, read-out: MIC80",> 128 µg/mL
same,conc. for 4-fold synergy,A. fumigatus ATCC 1022; [10],>128 µg/mL
same,MTT HMEC,HMEC [5],0.75 µM
same,HDAC inhibition IC50,HDAC [6],0.01 µg/mL
same,MIC,C. albicans (ATCC 90028); [9],> 128 µg/mL
same,MIC,C. glabrata (ATCC 90030) [3]; [11],> 64 µg/mL
same,HDAC inhibition IC50,HDAC [2],0.01 µg/mL
"Nc1ccccc1NC(=O)c1ccc(CNC(=O)OCc2cccnc2)cc1 [MS275, reference compound]",HDAC inhibition IC50,HDAC [1],>20 µg/mL
same,MIC80,A. fumigatus ATCC 1022; [12],> 128 µg/mL
same,conc. for 4-fold synergy,A. fumigatus ATCC 1022; [10],>128 µg/mL
same,MTT HMEC,HMEC [5],22 µM
same,HDAC inhibition IC50,HDAC [6],>40 µg/mL
same,MIC80,C. albicans (ATCC 90028); [9],> 128 µg/mL
same,MIC80,C. glabrata (ATCC 90030) [3]; [11],> 64 µg/mL
same,HDAC inhibition IC50,HDAC [2],>20 µg/mL
"C[C@@H]([C@H](N)C(=O)N[C@H](C(=O)O)[C@H]1O[C@@H](n2ccc(=O)[nH]c2=O)[C@H](O)[C@@H]1O)[C@H](O)c1ccc(O)cn1 [Nikkomycin, nikkomycin, reference compound]",MIC,"C. albicans (ATCC 90028); Candida albicans, ATCC90028, read-out: Nikkomycin MIC",100 µg/mL
"O=C(CCCCCCC(=O)Nc1ccccc1)NO [SAHA, suberoylanilide hydroxamic acid, reference compound]",MIC80,C. albicans (ATCC 90028); [9],> 128 µg/mL
same,MIC80,C. glabrata (ATCC 90030) [3]; [11],> 64 µg/mL
same,MTT HMEC,HMEC [4],18 µM
"CC(/C=C/C(=O)NO)=C\[C@@H](C)C(=O)c1ccc(N(C)C)cc1 [TSA, trichostatin A, reference compound]",HDAC inhibition IC50,HDAC [1],~0.06 µg/mL
same,MIC80,A. fumigatus ATCC 1022; [12],64 to 128 µg/mL
same,conc. for 4-fold synergy,A. fumigatus ATCC 1022; [10],4 µg/mL
same,HDAC inhibition IC50,HDAC [6],0.01 µg/mL
same,MIC80,C. albicans (ATCC 90028); [9],> 128 µg/mL
same,MIC80,C. glabrata (ATCC 90030) [3]; [11],64 µg/mL
same,HDAC inhibition IC50,HDAC [2],0.07 µg/mL
same,MTT HMEC,HMEC [4],1 µM
"CN(C/C=C/C#CC(C)(C)C)Cc1cccc2ccccc12 [Terbinafine, terbinafine, reference compound]",MIC,"C. albicans (ATCC 90028); Candida albicans, ATCC90028, terbinafine alone, C. albicans, read-out: Terbinafine MIC",0.39 µg/mL
CC(/C=C/C(=O)NO)=C\C(C)Cc1ccc(N(C)C)cc1 (stereo not drawn) [drawing 148],conc. for 4-fold synergy,"A. fumigatus ATCC 1022; with fluconazole, A. fumigatus ATCC 1022",0.25 µg/mL
same,HDAC inhibition IC50,HDAC [6],2.0 µg/mL
same,MTT HMEC,HMEC [4],44 µM
CC(/C=C/C(=O)NO)=C\C(C)Cc1ccc(N(C)C)cc1 (stereo not drawn) [drawing 150],conc. for 4-fold synergy,"A. fumigatus ATCC 1022; with itraconazole, A. fumigatus ATCC 1022",0.25 µg/mL
same,HDAC inhibition IC50,HDAC [6],2.0 µg/mL
same,MTT HMEC,HMEC [4],44 µM
CC(/C=C/C(=O)NO)=C\C(C)Cc1ccc(N(C)C)cc1 (stereo not drawn) [drawing 152],conc. for 4-fold synergy,"A. fumigatus ATCC 1022; with voriconazole, A. fumigatus (ATCC 1022)",0.25 µg/mL
same,HDAC inhibition IC50,HDAC [6],2.0 µg/mL
same,MTT HMEC,HMEC [4],44 µM
OC(Cn1cncn1)(Cn1cncn1)c1ccc(F)cc1F [fluconazole],frequency of resistant C. glabrata mutants,C. glabrata (ATCC 90030) [7],5×10^−6
same,MIC,"C. dubliniensis; 48 h, read-out: FLU MIC",0.12 µg/mL
"CCC(C)n1ncn(-c2ccc(N3CCN(c4ccc(OCC5COC(Cn6cncn6)(c6ccc(Cl)cc6Cl)O5)cc4)CC3)cc2)c1=O (stereo not drawn) [itraconazole, reference compound]",MIC80,[8]; C. glabrata mutants resistant to that azole,> 64 µg/mL
same,MIC80,[8]; C. glabrata parent strain,1 µg/mL
same,MIC80 itraconazole relative to wild type,[8]; fluconazole-resistant mutants (all),64 × wild type
same,itraconazole MIC80 in presence of Compound 4,[8]; itraconazole-resistant mutants,≤ 1 µg/mL
same,PAFE,C. glabrata,No PAFE
same,frequency of resistant C. glabrata mutants,C. glabrata (ATCC 90030) [7],3×10^−7
same,ITR MIC,A. flavus; A. flavus isolate 20351.092,0.5 µg/mL
same,ITR MIC,A. flavus; A. flavus isolate 20414.083,1.0 µg/mL
"C[C@@H](c1ncncc1F)[C@](O)(Cn1cncn1)c1ccc(F)cc1F [voriconazole, reference compound]",MIC,"C. dubliniensis; voriconazole alone, C. dubliniensis clinical isolates, CLSI M27-A2, 48 hour endpoint, read-out: VOR MIC",0.007 µg/mL
Oxamflatin [reference compound],HDAC inhibition IC50,HDAC [1],~7 µg/mL
same,MIC80,"A. fumigatus ATCC 1022; compound alone, A. fumigatus ATCC 1022",>128 µg/mL
same,conc. for 4-fold synergy,A. fumigatus ATCC 1022; [10],>128 µg/mL
same,HDAC inhibition IC50,HDAC [6],5.0 µg/mL
same,MIC80,"C. albicans (ATCC 90028); compound alone, C. albicans (ATCC 90028)",>64 µg/mL
same,conc. for 4-fold synergy,"C. albicans (ATCC 90028); with ketoconazole, C. albicans (ATCC 90028), 48 hours",16 µg/mL
same,MIC80,C. glabrata (ATCC 90030) [3],>64 µg/mL
same,conc. for 4-fold synergy,"C. glabrata (ATCC 90030) [3]; with ketoconazole, 48 hours",128 µg/mL
same,HDAC inhibition IC50,HDAC [2],>20 µg/mL
same,MTT HMEC,HMEC [4],2 µM
